Reference: patent US5453440A, “Peptide mimics useful as platelet aggregation inhibitors” (G. D. Searle & Co., priority 1993, dated 1995)

Legend:
[1] = tested on: fibrinogen binding to platelets; test: Fibrinogen binding assay (125I-fibrinogen binding to ADP-activated human platelets); conditions: ADP 10 μM, 125I-fibrinogen 0.3 μM, 40 min at 37° C.
Description: Fibrinogen binding was performed essentially as described by Plow et al., Blood 70, 110-115 (1987). Briefly, blood from humans who had not been given any antiplatelet drugs in the previous two weeks was collected into 1/10th volume of CCD buffer (100 mM sodium citrates, 136 mM glucose, pH 6.5). The blood was centrifuged for 3 min at 1000×g and platelet rich plasma was transferred to a plastic tube with a plastic pipet and placed on ice. After 15 minutes, 1/2 volume of ice cold CCD buffer was added and the sample was centrifuged at 900×g for 10 min at 2° C. The supernatant was decanted and the platelet pellet was gently resuspended in 1/2 the original volume of ice cold modified Tyrode's buffer (137 mM NaCl, 2.6 mM KCl, 12 mM NaHCO3, 5.5 mM glucose, 15 mM HEPES, 0.5% BSA, pH 7.4). After incubating for 30 minutes at 37° C., the platelet count was adjusted to 4×10^8 platelets/ml with modified Tyrode's buffer. To test samples (final concentration=1×10^8 platelets/ml) were added in sequence: ADP (10 μM), CaCl2 (2 mM), test compound, and ^125 I-fibrinogen (0.3 μM) to the aforesaid final concentrations in a volume of 200 μ1. […] Specific binding was determined in each test by subtracting from the total binding the amount of ^125 I-fibrinogen bound in the presence of a 60-fold excess of unlabeled fibrinogen. […]

[2] = tested on: platelet aggregation in dog PRP; test: In-vitro platelet aggregation in PRP (ADP-induced, dog platelet-rich plasma); type: cell-based; conditions: Canis lupus familiaris, ADP 50 μm final concentration, 37° C., 1 minute preincubation
Description: Healthy male or female dogs were fasted for 8 hours prior to drawing blood; then 30 ml whole blood was collected using a butterfly needle and 30 cc plastic syringe with 3 ml of 0.129 M buffered sodium citrate (3.8%). The syringe was rotated carefully as blood was drawn to mix the citrate. Platelet-rich plasma (PRP) was prepared by centrifugation at 975×g for 3.17 minutes at room temperature, allowing the centrifuge to coast to a stop without braking. The PRP was removed from the blood with a plastic pipette and placed in a plastic capped, 50 ml Corning conical sterile centrifuge tube which was held at room temperature. Platelet poor plasma (PPP) was prepared by centrifuging the remaining blood at 2000×g for 15 minutes at room temperature allowing the centrifuge to coast to a stop without braking. The PRP was adjusted with PPP to a count of 2-3×10^8 platelets per ml. 400 μl of the PRP preparation and 50 μl of the compound to be tested or saline were preincubated for 1 minute at 37° C. in a BioData aggregometer (BioData, Horsham, Pa.). 50 μl of adenosine 5'-diphosphate (ADP) (50 μm final concentration) was added to the cuvettes and the aggregation was monitored for 1 minute. All compounds are tested in duplicate. Results are calculated as follows:
Percent of control=[(maximal OD minus initial OD of compound) divided by (maximal OD minus initial OD of control saline)]×100. The % inhibition=100-(percent of control).

Row | Structure (SMILES) | IC50 [1] | IC50 [2]
1 | COC(=O)[C@H](Cc1ccccc1)NC(=O)[C@H](CC(=O)O)NC(=O)CCC(=O)Nc1ccc(C(=N)N)cc1 [Example 1, N-[N-[4-[[4-(aminoiminomethyl)phenyl]-amino]-1,4-dioxobutyl]-L-alpha-aspartyl]-L-phenylalanine, 1-methyl ester] | 48 nM | 90 nM
2 | N=C(N)c1ccc(NC(=O)CCC(=O)N[C@@H](CC(=O)O)C(=O)N[C@@H](Cc2ccccc2)C(=O)O)cc1 [Example 2, N-[N-[4-[[4-(aminoiminomethyl)phenyl]amino]-1,4-dioxobutyl]-L-alpha-aspartyl]-L-phenylalanine] | – | 80 nM
3 | N=C(N)c1ccc(N(Cc2ccccc2)C(=O)CCC(=O)N[C@@H](CC(=O)O)C(=O)N[C@@H](Cc2ccccc2)C(=O)O)cc1 [Example 9] | – | 350 nM
